Measured values as given in US11939340B2, “CDK inhibitors and their use as pharmaceuticals” (Prelude Therapeutics Incorporated, priority 2022, dated 2024).

Assays:
[1] = molecular target: CDK2/Cyclin E2 (Homo sapiens, UniProt P24941); test: CDK2/CyclinE2 Enzymatic Activity Assay (TR-FRET); type: biochemical; conditions: CDK2/CyclinE2 1 nM, ATP 1 mM, read-out: CDK2_El IC50
Experimental: CDK2/CyclinE2 Enzymatic Activity Assay
The inhibitory activity of compounds was evaluated in vitro using TR-FRET assay with white 384-well low volume microplate (Greiner Bio-One). CDK2/Cyclin E2 catalyzed phosphorylation of peptide in the presence and absence of compounds was measured and used in IC50 determination. Recombinant protein complex CDK2/Cyclin E2, expressed from insect cell, was purchased from ProQinase. Testing compounds were dissolved in DMSO at 1 mM and tested in 9-dose IC50 mode. The reaction mixture was prepared by mixing CDK2/CyclinE2 (1 nM final), ULight-4E-BP1 (50 nM final, Perkinelmer, TRF0128-D), and ATP (1 mM final) in assay buffer (20 mM of HEPES pH 7.4, 1 mM of EGTA, 0.05% BSA, 0.005% Tween 20, and 1 mM TCEP). The compound of interest in DMSO was added to each well in 3-fold serial dilution by dispenser (TECAN D300E) to make a 9.9 μL of reaction mixture. After 20 minutes preincubation at room temperature, 0.1 μL MgCl2 (10 mM final) was added to initiate the reaction. Following a 45 minute incubation at 37° C., the reaction was stopped by addition of 2 μL of quenching buffer consisting of Lance detection buffer (Perkinelmer CR97-100C), LANCE Ultra Europium-anti-P-4E-BP1 (Perkinelmer, TRF0216-D), EDTA, and incubate at room temperature for additional 60 minutes in the dark. The reaction signal was measured by Envision multimode plate reader (PerkinElmer, 2102-0010). IC50 values were determined by fitting the data to the standard 4 parameters with Hill Slope using GraphPad Prism software.

[2] = molecular target: T1, CDK4/Cyclin D1 (Homo sapiens, UniProt P11802); test: CDK4/CyclinD1 Enzymatic Activity Assay (TR-FRET); type: biochemical; conditions: CDK4/CyclinD1 1 nM, ATP 2 mM, read-out: CDK4_D1 IC50
T1 construct: purchased ProQinase; host or cells: insect cell
T1 sequence (P11802 whole entry): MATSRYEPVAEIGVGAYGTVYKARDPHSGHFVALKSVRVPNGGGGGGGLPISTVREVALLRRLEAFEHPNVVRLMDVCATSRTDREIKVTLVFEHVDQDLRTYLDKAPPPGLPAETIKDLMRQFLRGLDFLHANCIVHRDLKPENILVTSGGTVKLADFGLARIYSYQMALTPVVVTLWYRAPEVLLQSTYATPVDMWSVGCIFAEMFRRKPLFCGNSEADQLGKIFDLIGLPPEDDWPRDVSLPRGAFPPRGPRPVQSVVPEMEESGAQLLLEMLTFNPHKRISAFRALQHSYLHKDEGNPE
T1 sequence (P24385 whole entry partner): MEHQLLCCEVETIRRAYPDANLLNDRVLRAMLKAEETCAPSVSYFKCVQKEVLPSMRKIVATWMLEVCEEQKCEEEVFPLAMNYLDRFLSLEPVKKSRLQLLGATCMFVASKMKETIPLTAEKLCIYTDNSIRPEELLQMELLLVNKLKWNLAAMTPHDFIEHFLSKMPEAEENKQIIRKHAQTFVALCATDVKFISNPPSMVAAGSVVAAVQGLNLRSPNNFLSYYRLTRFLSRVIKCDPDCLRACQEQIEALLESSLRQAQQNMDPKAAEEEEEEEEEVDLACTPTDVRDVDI
Experimental: CDK4/CyclinD1 Enzymatic Activity Assay
The inhibitory activity of compounds was evaluated in vitro using TR-FRET assay with white 384-well low volume microplate (Greiner Bio-One). CDK4/Cyclin D1 catalyzed phosphorylation of peptide in the presence and absence of compounds was measured and used in IC50 determination. Recombinant protein complex CDK4/Cyclin D1, expressed from insect cell, was purchased from ProQinase. Testing compounds were dissolved in DMSO at 1 mM and tested in 9-dose IC50 mode. The reaction mixture was prepared by mixing CDK4/CyclinD1 (1 nM final), ULight-4E-BP1 (100 nM final, Perkinelmer, TRF0128-D), and ATP (2 mM final) in assay buffer (20 mM of HEPES pH 7.4, 1 mM of EGTA, 0.05% BSA, 0.005% Tween 20, and 1 mM TCEP). The compound of interest in DMSO was added to each well in 3-fold serial dilution by the dispenser (TECAN D300E) to make a 9.9 μL of reaction mixture. After 20 minutes preincubation at room temperature, 0.1 μL MgCl2 (10 mM final) was added to initiate the reaction. Following a 45 minute incubation at 37° C., the reaction was stopped by addition of 2 μL of quenching buffer consisting of Lance detection buffer (Perkinelmer CR97-100C), LANCE Ultra Europium-anti-P-4E-BP1 (Perkinelmer, TRF0216-D), EDTA, and incubated at room temperature for additional 60 minutes in dark. The reaction signal was measured by Envision multimode plate reader (PerkinElmer, 2102-0010). IC50 values were determined by fitting the data to the standard 4 parameters with Hill Slope using GraphPad Prism software.

[3] = tested on: pRB in OVCAR3 cells; test: pRB ICW Assay in OVCAR3 Cells; type: cell-based; conditions: Homo sapiens, OVCAR-3, incubated with compound for 2 hours, read-out: OVCAR3 p-RB ICW IC50
Experimental: pRB ICW Assay in OVCAR3 Cells
OVCAR3 cells were maintained in RPMI (Corning, Catalog #: 10-040-CV) supplemented with 10% v/v FBS (Gibco, Catalog #: 26140-079), 1% v/v Penicillin Streptomycin (Gibco, Catalog #15140-122.) OVCAR3 cells grown at log phase were trypsinized, counted, and resuspended in fresh medium to reach a final density of 6.7e4 cells/mL and 75 μL of culture were dispensed into a 384-well plate (Falcon, cat #353962) using a Multidrop Combi dispenser (Thermo Scientific). The next day, compounds were dispensed as a 9-point, ½ log serial dilution using a Tecan digital dispenser (D300e), and cells were incubated with compound for 2 hours in a humidified incubator at 37° C. A reference compound at a final concentration of 10 μM was used as a control for maximum inhibition. Each compound was tested in duplicates for each experiment. At the end of the incubation, 25 μL of 16% paraformaldehyde (Electron Microscopy, cat #15710) was slowly added to each well and the plate was incubated at room temperature (RT) for 30 minutes to fix cells. Cells were then permeabilized by incubating with 50 μL/well of wash buffer (lx PBS with 0.1% Triton X-100) 5×5 minutes, followed by 1 hour blocking with 30 μL/well of Odyssey blocking buffer (Li—COR, cat #927-40000), at RT. Anti-phosphor RB antibody (Cell signaling 8516S) was diluted 1:1000 in Odyssey blocking buffer and 20 μL was added to all wells and incubated overnight in 4° C. with gently rocking. The next day, cells were washed 5×5 min with 50 μL/well of wash buffer, followed with 1 hour incubation with secondary antibody and DRAQ5 diluted in Odyssey blocking buffer (1:500 dilution for secondary antibody and 1:2000 dilution for DRAQ5), 5×5 min washes, and one last wash with water. Plates were dried in 37° C. oven for 5 minutes and scanned using Li—COR Odyssey CLx imaging system to acquire intensities at 700 and 800 nm channels.

Row | SMILES | IC50 [1] [µM] | IC50 [2] [µM] | IC50 [3] [µM]
1 | CS(=O)(=O)N1CCC(Nc2ncc(C(F)(F)F)c(-c3cc4c(s3)C3(C5CC5)CCCN3C4=O)n2)CC1 (stereo not shown) [Example 22, 8a-Cyclopropyl-2-(2-((1-(methylsulfonyl)piperidin-4-yl)amino)-5-(trifluoromethyl)pyrimidin-4-yl)-6,7,8,8a-tetrahydro-4H-thieno[2,3-a]pyrrolizin-4-one] | ≤ 0.1 | ≤ 0.1 | ≤ 0.1
2 | CCC12CC(C)(O)CN1C(=O)c1cc(-c3nc(NC4CCN(S(C)(=O)=O)CC4)ncc3C(F)(F)F)sc12 (stereo not shown) [Example 34, 8a-Ethyl-7-hydroxy-7-methyl-2-(2-((1-(methylsulfonyl)piperidin-4-yl)amino)-5-(trifluoromethyl)pyrimidin-4-yl)-6,7,8,8a-tetrahydro-4H-thieno[2,3-a]pyrrolizin-4-one] | ≤ 0.1 | ≤ 0.1 | ≤ 0.1
3 | CCC12CC(F)(F)CN1C(=O)c1cc(-c3nc(NC4CCN(S(=O)(=O)c5cnn(C)c5)CC4)ncc3C(F)(F)F)sc12 (stereo not shown) [Example 35, 8a-Ethyl-7,7-difluoro-2-(2-((1-((1-methyl-1H-pyrazol-4-yl)sulfonyl)piperidin-4-yl)amino)-5-(trifluoromethyl)pyrimidin-4-yl)-6,7,8,8a-tetrahydro-4H-thieno[2,3-a]pyrrolizin-4-one] | ≤ 0.1 | ≤ 0.1 | ≤ 0.1
4 | CCC12CC(N)CN1C(=O)c1cc(-c3nc(NC4CCN(S(C)(=O)=O)CC4)ncc3C(F)(F)F)sc12 (stereo not shown) [Example 40, 7-Amino-8a-ethyl-2-(2-((1-(methylsulfonyl)piperidin-4-yl)amino)-5-(trifluoromethyl)pyrimidin-4-yl)-6,7,8,8a-tetrahydro-4H-thieno[2,3-a]pyrrolizin-4-one] | ≤ 0.1 | ≤ 0.1 | ≤ 0.1
5 | CC(C)C12CCCCN1C(=O)c1cc(-c3nc(NC4CCN(S(C)(=O)=O)CC4)ncc3C(F)(F)F)sc12 (stereo not shown) [Example 1, 9a-isopropyl-2-(2-((1-(methylsulfonyl)piperidin-4-yl)amino)-5-(trifluoromethyl)pyrimidin-4-yl)-7,8,9,9a-tetrahydrothieno[2,3-a]indolizin-4(6H)-one] | ≤ 0.1 | ≤ 0.1 | 0.1 to 0.5
6 | CCC12CCCN1C(=O)c1cc(-c3nc(NC4CCN(S(C)(=O)=O)CC4)ncc3C(F)(F)F)sc12 (stereo not shown) [Example 14, 8a-Ethyl-2-[2-[(1-methylsulfonylpiperidin-4-yl)amino]-5-(trifluoromethyl)pyrimidin-4-yl]-7,8-dihydro-6H-thieno[2,3-a]pyrrolizin-4-one] | ≤ 0.1 | ≤ 0.1 | ≤ 0.1
7 | CS(=O)(=O)N1CCC(Nc2ncc(C(F)(F)F)c(-c3cc4c(s3)C3(CCO)CCCCN3C4=O)n2)CC1 (stereo not shown) [Example 5, 9a-(2-Hydroxyethyl)-2-(2-((1-(methylsulfonyl)piperidin-4-yl)amino)-5-(trifluoromethyl)pyrimidin-4-yl)-7,8,9,9a-tetrahydrothieno[2,3-a]indolizin-4(6H)-one] | ≤ 0.1 | ≤ 0.1 | –
8 | CCC12CCCN1C(=O)c1cc(-c3ccnc(NC4CCN(S(C)(=O)=O)CC4)n3)sc12 (stereo not shown) [Example 28, 8a-Ethyl-2-(2-((1-(methylsulfonyl)piperidin-4-yl)amino)pyrimidin-4-yl)-6,7,8,8a-tetrahydro-4H-thieno[2,3-a]pyrrolizin-4-one] | 0.1 to 0.5 | 0.1 to 0.5 | –

Next, values leading:

Row | IC50 [1] [µM] | IC50 [2] [µM] | IC50 [3] [µM] | SMILES
9 | ≤ 0.1 | ≤ 0.1 | ≤ 0.1 | CCC12CCCN1C(=O)c1cc(-c3nc(NC4CCN(S(=O)(=O)c5cnn(C)c5)CC4)ncc3C(F)(F)F)sc12 (stereo not shown) [Example 37, 8a-Ethyl-2-(2-((1-((1-methyl-1H-pyrazol-4-yl)sulfonyl)piperidin-4-yl)amino)-5-(trifluoromethyl)pyrimidin-4-yl)-6,7,8,8a-tetrahydro-4H-thieno[2,3-a]pyrrolizin-4-one]
10 | ≤ 0.1 | ≤ 0.1 | – | CS(=O)(=O)N1CCC(Nc2ncc(C(F)(F)F)c(-c3cc4c(s3)C3(CCCO)CCCCN3C4=O)n2)CC1 (stereo not shown) [Example 4, 9a-(3-Hydroxypropyl)-2-(2-((1-(methylsulfonyl)piperidin-4-yl)amino)-5-(trifluoromethyl)pyrimidin-4-yl)-7,8,9,9a-tetrahydrothieno[2,3-a]indolizin-4(6H)-one]
11 | ≤ 0.1 | ≤ 0.1 | 0.1 to 0.5 | CCC12CC(NC)CN1C(=O)c1cc(-c3nc(N[C@H]4CCN(S(C)(=O)=O)C[C@H]4C)ncc3C(F)(F)F)sc12 (stereo partly drawn) [Example 43, 8a-Ethyl-2-(2-(((3R,4S)-3-methyl-1-(methylsulfonyl)piperidin-4-yl)amino)-5-(trifluoromethyl)pyrimidin-4-yl)-7-(methylamino)-6,7,8,8a-tetrahydro-4H-thieno[2,3-a]pyrrolizin-4-one]
12 | ≤ 0.1 | ≤ 0.1 | ≤ 0.1 | CCC12CC(NC)CN1C(=O)c1cc(-c3nc(NC4CCN(S(C)(=O)=O)CC4)ncc3C(F)(F)F)sc12 (stereo not shown) [Example 38, 8a-Ethyl-7-(methylamino)-2-(2-((1-(methylsulfonyl)piperidin-4-yl)amino)-5-(trifluoromethyl)pyrimidin-4-yl)-6,7,8,8a-tetrahydro-4H-thieno[2,3-a]pyrrolizin-4-one]
13 | ≤ 0.1 | ≤ 0.1 | 0.1 to 0.5 | CS(=O)(=O)N1CCC(Nc2ncc(C(F)(F)F)c(-c3cc4c(s3)C3(C5CC(F)(F)C5)CCCN3C4=O)n2)CC1 (stereo not shown) [Example 24, 8a-(3,3-Difluorocyclobutyl)-2-(2-((1-(methylsulfonyl)piperidin-4-yl)amino)-5-(trifluoromethyl)pyrimidin-4-yl)-6,7,8,8a-tetrahydro-4H-thieno[2,3-a]pyrrolizin-4-one]
14 | ≤ 0.1 | ≤ 0.1 | 0.1 to 0.5 | CS(=O)(=O)N1CCC(Nc2ncc(C(F)(F)F)c(-c3cc4c(s3)C3CCCN3C4=O)n2)CC1 (stereo not shown) [Example 21, 2-(2-((1-(Methylsulfonyl)piperidin-4-yl)amino)-5-(trifluoromethyl)pyrimidin-4-yl)-6,7,8,8a-tetrahydro-4H-thieno[2,3-a]pyrrolizin-4-one]
15 | ≤ 0.1 | – | – | CC(C)C12CCCCN1C(=O)c1cc(-c3nc(NC4CCN(S(C)(=O)=O)CC4)ncc3F)sc12 (stereo not shown) [Example 9, 2-(5-Fluoro-2-((1-(methylsulfonyl)piperidin-4-yl)amino)pyrimidin-4-yl)-9a-isopropyl-7,8,9,9a-tetrahydrothieno[2,3-a]indolizin-4(6H)-one]
